Experimental data: paper PMC10035947, “Development of novel anilinoquinazoline-based carboxylic acids as non-classical carbonic anhydrase IX and XII inhibitors” (Journal of Enzyme Inhibition and Medicinal Chemistry, 2023)
Like-named read-outs stand apart in the source and are kept apart here.

Experiments:
[1] = test system: ACHN; test: NCI SRB assay; assay type: cell-based, human; details: for GI50 / TGI / CC50: 5-dose; for CC50: read-out: LC50 (the source's name)
[2] = test system: CCRF-CEM; test: NCI SRB assay; assay type: cell-based, human; details: for GI50 / TGI / CC50: 5-dose; for CC50: read-out: LC50 (the source's name)
[3] = test system: SK-MEL-2; test: NCI SRB assay; assay type: cell-based, human
[4] = test system: SF-295; test: NCI SRB assay; assay type: cell-based, human
[5] = target: T1, hCA XII (Homo sapiens, UniProt O43570); test: stopped flow CO2 hydrase assay; assay type: biochemical
T1 construct: made in house
T1 sequence (O43570 25-354): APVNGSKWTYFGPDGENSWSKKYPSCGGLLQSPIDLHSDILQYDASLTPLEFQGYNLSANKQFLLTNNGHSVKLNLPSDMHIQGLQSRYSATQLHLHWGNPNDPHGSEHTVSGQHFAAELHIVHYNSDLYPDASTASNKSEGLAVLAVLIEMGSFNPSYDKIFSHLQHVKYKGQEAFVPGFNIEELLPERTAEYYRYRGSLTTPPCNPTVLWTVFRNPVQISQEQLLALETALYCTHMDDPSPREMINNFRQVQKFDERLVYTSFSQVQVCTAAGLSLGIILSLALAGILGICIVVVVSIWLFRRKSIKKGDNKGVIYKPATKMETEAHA
Protocol: (§1) Carbonic anhydrase inhibition assay
(§2) The carbonic anhydrase catalyzed CO2 hydration actions for the quinazoline-based […]
(§3) Photophysics stopped-flow, as described previously. The enzymes are recombinant proteins prepared in our lab. Phenol red (at a concentration of 0.2 mM) has been used as indicator, working at the absorbance maximum of 557 nm, with 20 mM Hepes (pH 7.5) as buffer, and 20 mM Na2SO4 (for maintaining constant the ionic strength), following the initial rates of the CA- […]
(§4) 1.7 to 17 mM for the determination of the kinetic parameters and inhibition constants. For each […]
(§5) initial velocity. The uncatalyzed rates were determined in the same manner and subtracted from the total observed rates. Stock solutions of inhibitor (0.1 mM) were prepared in distilled-deionized water and dilutions up to 0.01 nM were done thereafter with the assay buffer. Inhibitor and enzyme solutions were preincubated together for 15 min at room temperature prior to assay, in order to allow for the formation of the E-I complex. The inhibition constants were obtained by non-linear least-squares methods using PRISM 3 and the Cheng-Prusoff equation, and represent the mean from at least three different determinations.

[6] = target: T2, hCA I (Homo sapiens, UniProt P00915); test: stopped flow CO2 hydrase assay; assay type: biochemical; details: mean from 3 assays
T2 construct: made in house
T2 sequence (P00915 whole entry): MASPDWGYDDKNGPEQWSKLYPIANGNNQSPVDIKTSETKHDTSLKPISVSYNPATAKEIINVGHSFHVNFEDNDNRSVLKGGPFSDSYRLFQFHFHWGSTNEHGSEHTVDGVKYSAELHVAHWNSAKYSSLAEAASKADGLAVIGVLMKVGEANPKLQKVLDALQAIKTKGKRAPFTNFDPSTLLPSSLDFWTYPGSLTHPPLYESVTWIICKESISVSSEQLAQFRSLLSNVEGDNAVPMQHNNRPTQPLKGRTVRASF
Protocol: as §1, §2, §3, §4, §5

[7] = target: T3, hCA IX (Homo sapiens, UniProt Q16790); test: stopped flow CO2 hydrase assay; assay type: biochemical
T3 construct: made in house
Protocol: as §1, §2, §3, §4, §5

[8] = test system: UACC-62; test: NCI SRB assay; assay type: cell-based, human
[9] = test system: CAKI-1; test: NCI SRB assay; assay type: cell-based, human; details: for CC50: read-out: LC50 (the source's name)
[10] = test system: DU-145; test: NCI SRB assay; assay type: cell-based, human; details: for CC50: read-out: LC50 (the source's name)
[11] = test system: SNB-19; test: NCI SRB assay; assay type: cell-based, human; details: for CC50: read-out: LC50 (the source's name)
[12] = test system: HCT-15; test: NCI SRB assay; assay type: cell-based, human
[13] = test system: HOP-92; test: NCI SRB assay; assay type: cell-based, human; details: for CC50: read-out: LC50 (the source's name)
[14] = test system: NCI-H322M; test: NCI SRB assay; assay type: cell-based, human; details: for CC50: read-out: LC50 (the source's name)
[15] = test system: BT-549; test: NCI SRB assay; assay type: cell-based, human
[16] = Homo sapiens, SNB-19, SNB-19, 5-dose
[17] = Homo sapiens, HCT-15, HCT-15, 5-dose
[18] = Homo sapiens, HOP-92, HOP-92, 5-dose

Cc1ccc(-c2nc(Nc3ccccc3C(=O)O)c3ccccc3n2)cc1 [6b, 2-((2-(p-Tolyl)quinazolin-4-yl)amino)benzoic acid]
GI% ([1]; 10 μM): 92%
Growth Percent ([1]; 1.00E-5 Molar): 7.89%
GI50 [1]: 6.4 µM
TGI [1]: 91.1 µM
TGI ([1]; listed as D - 835857): 9.11E-5 Molar
CC50 [1]: < 100 µM
GI50 ([1]; Homo sapiens): 6.44 µM
CC50 ([1]; Homo sapiens): > 100 µM
GI% ([2]; 10 μM): 87%
Growth Percent ([2]; 1.00E-5 Molar): 12.80%
GI50 [2]: 5.7 µM
TGI [2]: <100 µM
TGI ([2]; listed as D - 835857): > 1.00E-4 Molar
CC50 [2]: < 100 µM
GI50 ([2]; Homo sapiens): 5.72 µM
CC50 ([2]; Homo sapiens): > 100 µM
GI50 ([3]; Homo sapiens, SK-MEL-2, SK-MEL-2, 5-dose): 3.65 µM
CC50 ([3]; Homo sapiens, SK-MEL-2, 5-dose, read-out: LC50 (the source's name)): 83.5 µM
GI% ([3]; SK-MEL-2, 10 μM): 94%
Growth Percent ([3]; SK-MEL-2, 1.00E-5 Molar): 5.75%
GI50 ([3]; SK-MEL-2, 5-dose): 3.7 µM
TGI ([3]; SK-MEL-2, 5-dose): 15.6 µM
TGI ([3]; SK-MEL-2, 5-dose, listed as D - 835857): 1.56E-5 Molar
GI50 ([4]; Homo sapiens, SF-295, 5-dose): 7.04 µM
CC50 ([4]; Homo sapiens, SF-295, 5-dose, read-out: LC50 (the source's name)): 86 µM
GI% ([4]; SF-295, 10 μM): 94%
Growth Percent ([4]; SF-295, 1.00E-5 Molar): 5.81%
TGI ([4]; SF-295, 5-dose): 27.0 µM
TGI ([4]; SF-295, 5-dose, listed as D - 835857): 2.70E-5 Molar
Selectivity ratio I/XII ([5]; KI hCA I / KI hCA XII): 14.1
Selectivity ratio II/XII ([5]; KI hCA II / KI hCA XII): 6.79
Ki ([5]; mean from 3 assays): 7.1 µM
Ki [6]: > 100 µM
Selectivity ratio II/IX ([7]; KI hCA II / KI hCA IX): 1.40
Ki ([7]; mean from 3 assays): 34.4 µM
GI50 ([8]; Homo sapiens, UACC-62, 5-dose): 10.2 µM
CC50 ([8]; Homo sapiens, UACC-62, 5-dose, read-out: LC50 (the source's name)): 71.6 µM
GI% ([8]; UACC-62, 10 μM): 89%
Growth Percent ([8]; UACC-62, 1.00E-5 Molar): 11.04%
TGI ([8]; UACC-62, 5-dose): 27.0 µM
TGI ([8]; UACC-62, 5-dose, listed as D - 835857): 2.70E-5 Molar
GI% ([9]; CAKI-1, 10 μM): 79%
Growth Percent ([9]; CAKI-1, 1.00E-5 Molar): 21.08%
TGI ([9]; CAKI-1, 5-dose): <100 µM
TGI ([9]; CAKI-1, 5-dose, listed as D - 835857): > 1.00E-4 Molar
CC50 ([9]; CAKI-1, 5-dose): < 100 µM
CC50 ([9]; Homo sapiens, CAKI-1, CAKI-1, 5-dose): > 100 µM
GI50 ([9]; Homo sapiens, CAKI-1, 5-dose): 13.8 µM
GI% ([10]; DU-145, 10 μM): 81%
Growth Percent ([10]; DU-145, 1.00E-5 Molar): 19.37%
TGI ([10]; DU-145, 5-dose): <100 µM
TGI ([10]; DU-145, 5-dose, listed as D - 835857): > 1.00E-4 Molar
CC50 ([10]; DU-145, 5-dose): < 100 µM
CC50 ([10]; Homo sapiens, DU-145, DU-145, 5-dose): > 100 µM
GI50 ([10]; Homo sapiens, DU-145, 5-dose): 17.7 µM
GI50 [11, 16]: 8.09 µM
CC50 [11, 16]: > 100 µM
GI% ([11]; SNB-19, 10 μM): 91%
Growth Percent ([11]; SNB-19, 1.00E-5 Molar): 8.82%
GI50 ([11]; SNB-19, 5-dose): 8.1 µM
TGI ([11]; SNB-19, 5-dose): 81.7 µM
TGI ([11]; SNB-19, 5-dose, listed as D - 835857): 8.17E-5 Molar
CC50 ([11]; SNB-19, 5-dose): < 100 µM
GI% ([12]; HCT-15, 10 μM): 95%
Growth Percent ([12]; HCT-15, 1.00E-5 Molar): 4.66%
GI50 ([12]; HCT-15, 5-dose): 5.8 µM
LC50 ([12]; HCT-15, 5-dose): < 100 µM
TGI ([12]; HCT-15, 5-dose): 28.7 µM
TGI ([12]; HCT-15, 5-dose, listed as D - 835857): 2.87E-5 Molar
GI50 [12, 17]: 5.82 µM
LC50 [12, 17]: > 100 µM
GI% ([13]; HOP-92, 10 μM): 120%
Growth Percent ([13]; HOP-92, 1.00E-5 Molar): -19.52%
GI50 ([13]; HOP-92, 5-dose): 2.9 µM
TGI ([13]; HOP-92, 5-dose): 29.3 µM
TGI ([13]; HOP-92, 5-dose, listed as D - 835857): 2.93E-5 Molar
CC50 ([13]; HOP-92, 5-dose): < 100 µM
GI50 [13, 18]: 2.85 µM
CC50 [13, 18]: > 100 µM
GI% ([14]; 10 μM): 66%
Growth Percent ([14]; 1.00E-5 Molar): 33.77%
TGI ([14]; 5-dose): <100 µM
TGI ([14]; 5-dose, listed as D - 835857): > 1.00E-4 Molar
CC50 ([14]; 5-dose): < 100 µM
GI50 ([14]; Homo sapiens, 5-dose): 13.6 µM
CC50 ([14]; Homo sapiens, 5-dose): > 100 µM
GI% ([15]; BT-549, 10 μM): 123%
Growth Percent ([15]; BT-549, 1.00E-5 Molar): -23.53%
TGI ([15]; BT-549, 5-dose): 33.8 µM
TGI ([15]; BT-549, 5-dose, listed as D - 835857): 3.38E-5 Molar
GI50 ([15]; Homo sapiens, BT-549, 5-dose): 14.6 µM
CC50 ([15]; Homo sapiens, BT-549, 5-dose, read-out: LC50 (the source's name)): 78.1 µM
